Active and inactive are the calls of the source. No cut-off for these calls is given here.
Columns and labels:
[1] = target: Receptor tyrosine-protein kinase erbB-2 (Homo sapiens) (UniProt P04626); test: Inhibition of HER2 at 1 mM
[2] = target: Epidermal growth factor receptor (Homo sapiens) (UniProt P00533); test: Inhibition of EGFR at 1 mM
Sequence of Epidermal growth factor receptor (Homo sapiens) (P00533 whole entry): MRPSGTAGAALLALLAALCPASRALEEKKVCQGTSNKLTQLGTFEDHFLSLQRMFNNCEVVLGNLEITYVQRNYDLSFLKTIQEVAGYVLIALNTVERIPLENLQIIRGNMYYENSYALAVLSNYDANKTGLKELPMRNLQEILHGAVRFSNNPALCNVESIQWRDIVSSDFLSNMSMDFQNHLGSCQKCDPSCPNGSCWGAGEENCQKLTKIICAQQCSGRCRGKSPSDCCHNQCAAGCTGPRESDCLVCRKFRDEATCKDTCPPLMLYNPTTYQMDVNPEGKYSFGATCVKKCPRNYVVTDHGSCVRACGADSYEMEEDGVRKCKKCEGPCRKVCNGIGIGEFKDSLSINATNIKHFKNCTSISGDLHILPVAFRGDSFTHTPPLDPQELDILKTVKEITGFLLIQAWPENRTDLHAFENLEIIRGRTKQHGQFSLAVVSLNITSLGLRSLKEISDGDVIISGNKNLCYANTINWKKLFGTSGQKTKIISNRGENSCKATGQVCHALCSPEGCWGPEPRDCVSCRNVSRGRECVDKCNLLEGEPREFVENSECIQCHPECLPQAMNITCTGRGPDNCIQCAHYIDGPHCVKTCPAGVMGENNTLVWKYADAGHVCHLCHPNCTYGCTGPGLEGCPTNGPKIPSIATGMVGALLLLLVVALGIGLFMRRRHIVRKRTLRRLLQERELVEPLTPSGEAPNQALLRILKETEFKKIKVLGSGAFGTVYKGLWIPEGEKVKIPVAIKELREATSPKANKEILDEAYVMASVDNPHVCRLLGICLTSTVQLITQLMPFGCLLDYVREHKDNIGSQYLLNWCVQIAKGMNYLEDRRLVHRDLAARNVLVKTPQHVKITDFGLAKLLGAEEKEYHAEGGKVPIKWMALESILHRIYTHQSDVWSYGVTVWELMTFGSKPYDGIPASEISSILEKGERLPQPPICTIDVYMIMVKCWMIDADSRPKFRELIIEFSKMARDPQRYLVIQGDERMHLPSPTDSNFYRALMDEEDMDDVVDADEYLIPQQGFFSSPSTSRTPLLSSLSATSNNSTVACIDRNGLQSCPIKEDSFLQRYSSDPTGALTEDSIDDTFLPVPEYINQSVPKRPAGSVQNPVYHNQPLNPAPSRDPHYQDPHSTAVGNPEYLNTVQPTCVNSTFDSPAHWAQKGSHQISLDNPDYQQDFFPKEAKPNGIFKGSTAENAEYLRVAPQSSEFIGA

Sequence of Receptor tyrosine-protein kinase erbB-2 (Homo sapiens) (P04626 whole entry): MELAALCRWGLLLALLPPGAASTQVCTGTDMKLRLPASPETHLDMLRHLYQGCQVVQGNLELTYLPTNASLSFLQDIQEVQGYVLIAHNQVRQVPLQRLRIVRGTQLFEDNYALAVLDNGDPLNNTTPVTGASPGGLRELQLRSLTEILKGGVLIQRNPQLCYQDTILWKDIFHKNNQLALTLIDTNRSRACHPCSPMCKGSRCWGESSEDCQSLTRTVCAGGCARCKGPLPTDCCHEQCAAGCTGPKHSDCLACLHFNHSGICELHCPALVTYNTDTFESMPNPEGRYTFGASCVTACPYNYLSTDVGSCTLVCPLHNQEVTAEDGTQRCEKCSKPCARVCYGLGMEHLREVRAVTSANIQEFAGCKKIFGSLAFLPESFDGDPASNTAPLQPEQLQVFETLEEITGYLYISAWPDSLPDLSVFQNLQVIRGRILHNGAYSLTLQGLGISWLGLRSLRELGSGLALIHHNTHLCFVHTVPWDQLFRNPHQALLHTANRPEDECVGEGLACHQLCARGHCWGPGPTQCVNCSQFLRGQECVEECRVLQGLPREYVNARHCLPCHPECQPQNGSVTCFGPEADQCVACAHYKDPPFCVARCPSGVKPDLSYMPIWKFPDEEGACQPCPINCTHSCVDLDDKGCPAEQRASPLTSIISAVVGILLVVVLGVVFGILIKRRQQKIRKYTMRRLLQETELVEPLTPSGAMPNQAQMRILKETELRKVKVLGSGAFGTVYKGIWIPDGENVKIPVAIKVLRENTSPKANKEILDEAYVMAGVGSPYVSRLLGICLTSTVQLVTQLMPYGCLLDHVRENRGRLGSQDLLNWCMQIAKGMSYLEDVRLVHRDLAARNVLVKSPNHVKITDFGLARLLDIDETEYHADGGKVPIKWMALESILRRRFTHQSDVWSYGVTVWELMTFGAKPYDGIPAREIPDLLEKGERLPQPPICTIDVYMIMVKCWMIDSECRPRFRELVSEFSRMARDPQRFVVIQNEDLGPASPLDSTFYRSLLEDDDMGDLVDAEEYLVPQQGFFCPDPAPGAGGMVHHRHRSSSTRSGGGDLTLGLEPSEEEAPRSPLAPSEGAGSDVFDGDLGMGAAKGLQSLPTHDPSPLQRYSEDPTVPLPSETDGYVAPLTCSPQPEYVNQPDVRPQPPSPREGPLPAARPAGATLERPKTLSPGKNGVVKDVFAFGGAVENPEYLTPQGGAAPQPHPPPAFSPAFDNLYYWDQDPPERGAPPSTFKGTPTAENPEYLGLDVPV

Row | inhibition [1] | inhibition [2] | SMILES
1 | inactive | 76% | C[C@H]1CC=C2[C@@H](CCCC2(C)C)[C@]1(C)CC1=C(O)C(=O)C=C(NCCc2ccccc2)C1=O
2 | 66% | inactive | CC1=CCC[C@H]2[C@](C)(CC3=C(O)C(=O)C=C(NCCC(C)C)C3=O)[C@@H](C)CC[C@]12C
3 | inactive | inactive | CC(C)CCNC1=CC(=O)C(O)=C(C[C@@]2(C)[C@@H]3CCCC(C)(C)C3=CC[C@@H]2C)C1=O
4 | inactive | inactive | CC[C@H](C)CNC1=CC(=O)C(O)=C(C[C@@]2(C)[C@@H]3CCCC(C)(C)C3=CC[C@@H]2C)C1=O

The remaining lines, values behind:

Row | SMILES | inhibition [1] | inhibition [2]
5 | CC1=CCC[C@H]2[C@](C)(CC3=C(O)C(=O)C=C(NCCc4ccccc4)C3=O)[C@@H](C)CC[C@]12C | inactive | inactive
6 | C=C1CCC[C@H]2[C@](C)(CC3=C(O)C(=O)C=C(NC[C@@H](C)CC)C3=O)[C@@H](C)CC[C@]12C | inactive | inactive
7 | CC1=CCC[C@H]2[C@](C)(CC3=C(O)C(=O)C=C(NCCS(=O)(=O)O)C3=O)[C@@H](C)CC[C@]12C | 52% | > 99%
8 | CC1=CCC[C@H]2[C@](C)(CC3=C(O)C(=O)C=C(NCC(C)C)C3=O)[C@@H](C)CC[C@]12C | 59% | inactive
9 | CC[C@H](C)CNC1=CC(=O)C(O)=C(C[C@]2(C)[C@@H](C)CC[C@]3(C)C(C)=CCC[C@@H]23)C1=O | inactive | inactive
